In series [1] the test system is Vero cells. Put plainly: in vitro. Format: cell-based. Conditions: African green monkey. In short, it runs like this:
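On the same plates after eGFP read-out, resazurin was added and cells incubated a further 5 h at 37 °C, 5% CO2; resorufin fluorescence read with 530 nm excitation. CC50 is the concentration halving resazurin conversion versus cell control; SI = CC50/EC50.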

For the next series, the system named is DENV-4 strains H241. As to the kind of experiment: Tetravalent RT-qPCR assay Protocol A, serotype 4. Format: cell-based. To be noted: Dengue virus, DENV4, 72 h; RT-qPCR serotype 4 H241, Vero cells, day 3. The procedure: (§1) The antiviral activity of the compounds of the invention was tested against DENV-1 strain TC974#666 (NCPV; Table 6), DENV-2 strain 16681 (Table 7), DENV-3 strain H87 (NCPV; Table 8) and DENV-4 strains H241 (NCPV; Table 9) in a RT-qPCR assay. Therefore, Vero cells were infected with either DENV-1, or -2, or -3, or -4 in the presence or absence of test compounds. At day 3 post-infection, the cells were lysed and cell lysates were used to prepare cDNA of both a viral target (the 3′UTR of DENV; table 2) and a cellular reference gene (β-actin, table 2). Subsequently, a duplex real time PCR was performed on a Lightcycler480 instrument. The generated Cp value is inversely proportional to the amount of RNA expression of these targets. Inhibition of DENV replication by a test compound result in a shift of Cp's for the 3′UTR gene. On the other hand, if a test compound is toxic to the cells, a similar effect on β-actin expression will be observed. The comparative ΔΔCp method is used to calculate EC50, which is based on the relative gene expression of the target gene (3′UTR) normalized with the cellular housekeeping gene (β-actin).
(§2) The culture medium consisted of minimal essential medium supplemented with 2% of heat-inactivated fetal calf serum, 0.04% gentamycin (50 mg/mL) and 2 mM of L-glutamine. Vero cells, obtained from ECACC, were suspended in culture medium and 75 μL/well was added in 96-well plates (10000 cells/well), which already contain the antiviral compounds. Typically, these plates contain a 4-fold serial dilution of 9 dilution steps of the test compound at 200 times the final concentration in 100% DMSO (500 nL; final concentration range: 25 μM-0.00038 μM). In addition, each plate contains wells which are assigned as virus controls (containing cells and virus in the absence of compound) and cell controls (containing cells in the absence of virus and compound). Once the cells were added in the plates, the plates were incubated in a fully humidified incubator (37° C., 5% CO2) until the next day. Then, DENV-1 strain TC974#666 at an MOI of 0.6, DENV-2 strain 16681 at an MOI of 0.01, DENV-3 strain H87 at an MOI of 1.0 and DENV-4 strains H241 at an MOI of 0.2 and SG/06K2270DK1/2005 at an MOI of 0.16, were added. Therefore, 25 μL of virus suspension was added to all the wells containing test compound and to the wells assigned as virus control. In parallel, 25 μL of culture medium was added to the cell controls. Next, the plates were incubated for 3 days in a fully humidified incubator (37° C., 5% CO2). After 3 days, the supernatant was removed from the wells and the cells were washed twice with ice-cold PBS (˜100 μL). The cell pellets within the 96-well plates were stored at −80° C. for at least 1 day. Next, RNA was extracted using the Cells-to-CT™ lysis kit, according to the manufacture's guideline (Applied Biosystems). The cell lysates can be stored at −80° C. or immediately used in the reverse transcription step.
(§3) In preparation of the reverse transcription step, mix A (table 3A) was prepared and 7.57 μL/well was dispensed in a 96-well plate. After addition of 5 μL of the cell lysates, a five minute denaturation step at 75° C. was performed (table 3B). Afterwards, 7.43 μL of mix B was added (table 3C) and the reverse transcription step was initiated (table 3D) to generate cDNA.
(§4) Finally, a RT-qPCR mix was prepared, mix C (table 4A), dispensed in 96-well LightCycler qPCR plates to which 3 μL of cDNA was added and the qPCR was performed according to the conditions in table 4B on a LightCycler 480. Using the LightCycler software and an in-house LIMS system, dose response curves for each compound were calculated and the half maximal effective concentration (EC50) and the half maximal cytotoxic concentration (CC50) were determined.
(In general: Real-time PCR tracks product formation cycle by cycle.)

The subject of another series is DENV-2 strain 16681. Put plainly: Tetravalent RT-qPCR assay Protocol A, serotype 2. Format: cell-based. Conditions: Dengue virus, DENV2, 72 h; RT-qPCR serotype 2 16681, Vero cells, day 3. The procedure: as §1, §2, §3, §4
The nature of the next series: in vitro. To be noted: African green monkey, CC50. Format: cell-based. Here is the method: as §1, §2, §4
The test system of series [2] is Vero cells. Put plainly: in vitro. It counts as cell-based. To be noted: African green monkey, 3 days. The procedure: as §1, §2, §4
The subject of a further series is DENV-2 16681 strain. Put plainly: DENV-2 antiviral assay (eGFP-labeled virus in Vero cells). It counts as cell-based, Dengue virus. Conditions: DENV-2 16681 eGFP, MOI 0.5, 3 days, listed as 13B*. In short, it runs like this: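 Vero cells were pre-plated with compound overnight, then infected with eGFP-labeled DENV-2 16681 at MOI 0.5 and incubated 3 days at 37 °C. eGFP fluorescence read by automated microscopy; 9-point 4-fold dilutions (25 μM–0.00038 μM final) in quadruplicate, EC50 by linear interpolation versus virus and cell controls.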

As a reminder, the CC50 is the concentration giving 50% cytotoxicity. As a reminder, the EC50 is the concentration giving half of the maximal effect.

Turning to `COc1cc(NC(C(=O)c2c[nH]c3c(F)c(F)ccc23)c2ccc(F)cc2OC)cc(S(C)(=O)=O)c1` (single isomer, unassigned) [Enantiomer 13B, 1-(6,7-difluoro-1H-indol-3-yl)-2-(4-fluoro-2-methoxyphenyl)-2-((3-methoxy-5-(methylsulfonyl)phenyl)amino)ethanone], the cytotoxic concentration (CC50) came to 6.7 µM with Vero cells [1] and 2.6 µM in the series on Vero cells [2]. Further, the EC50 was determined as 0.23 µM in the series on DENV-4 strains H241, 0.000675 µM in the series with DENV-2 strain 16681 and 0.0011 µM with DENV-2 16681 strain. This molecule returned a CC50 at 3 days in the series “in vitro” of 3.71 µM.

For the origin of these results see patent US10029984B2, “Mono- or di-substituted indole derivatives as dengue viral replication inhibitors” (Janssen Pharmaceuticals, Inc., priority 2015, dated 2018).
